# Like-named read-outs stand apart in the source and are kept apart here.
# Tests used:
# DLD1 WT cells = assay: 7-day cell viability assay (CellTiter-Glo), DLD1 parental (WT); type: cell-based, human; conditions: 7-day CellTiter-Glo, n=2
# DLD1 BRCA2 (−/−) cells = assay: 7-day cell viability assay (CellTiter-Glo), DLD1 BRCA2 (−/−); type: cell-based, human; conditions: 7-day CellTiter-Glo, n=2, read-out: Viability IC50 (uM) DLD1 BRCA2 null
# Procedure, shortened: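 7-day growth assay in DLD1 cells with or without BRCA2; seeding densities chosen to keep log-linear growth. Compound: 10 uM top, 3-fold, 9 points. Endpoint: CTG ATP luminescence at RT.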
Compound,"IC50 (DLD1 BRCA2 (−/−) cells; Homo sapiens, DLD-1, 168 h)","IC50 (DLD1 WT cells; Homo sapiens, DLD-1, 168 h)",IC50 (DLD1 WT cells),IC50 (DLD1 BRCA2 (−/−) cells)
"COc1cnc(Cl)cc1-c1cc(C)ncc1C(=O)Nc1nc2c(s1)CN(C(=O)c1ncc(C(F)F)c(OC)n1)C2 [Example 907, 2′-chloro-N-(5-(5-(difluoromethyl)-4-methoxypyrimidine-2-carbonyl)-5,6-dihydro-4H-pyrrolo[3,4-d]thiazol-2-yl)-5′-methoxy-6-methyl-[4,4′-bipyridine]-3-carboxamide]",0.001 to 0.1 µM,≥ 10 µM,–,–
"2′-chloro-N-(5-(3-chloro-5-(1,1-difluoroethyl)picolinoyl)-5,6-dihydro-4H-pyrrolo[3,4-d]thiazol-2-yl)-5′-methoxy-6-methyl-[4,4′-bipyridine]-3-carboxamide [Example 625]",–,–,≥ 10 µM,0.1 to 0.25 µM
"2′-Chloro-N-(5-(5,6-dimethylpyrazine-2-carbonyl)-5,6-dihydro-4H-pyrrolo[3,4-d]thiazol-2-yl)-5′-methoxy-6-methyl-[4,4′-bipyridine]-3-carboxamide [Example 410]",–,–,≥ 10 µM,0.001 to 0.1 µM
"2′-Chloro-N-(5-(5-(difluoromethyl)-3-methoxypyrazine-2-carbonyl)-5,6-dihydro-4H-pyrrolo[3,4-d]thiazol-2-yl)-5′-methoxy-6-methyl-[4,4′-bipyridine]-3-carboxamide [Example 418]",–,–,5 to 10 µM,0.001 to 0.1 µM
"COc1nc(C(F)(F)F)ccc1C(=O)N1Cc2nc(NC(=O)c3cnc(C)cc3-c3cc(C(F)F)nnc3OC)sc2C1 [Example 1025, 4-(6-(difluoromethyl)-3-methoxypyridazin-4-yl)-N-(5-(2-methoxy-6-(trifluoromethyl)nicotinoyl)-5,6-dihydro-4H-pyrrolo[3,4-d]thiazol-2-yl)-6-methylnicotinamide]",0.001 to 0.1 µM,≥ 10 µM,–,–
"2′-Chloro-N-(5-(3,5-dimethoxypyrazine-2-carbonyl)-5,6-dihydro-4H-pyrrolo[3,4-d]thiazol-2-yl)-5′-methoxy-6-methyl-[4,4′-bipyridine]-3-carboxamide [Example 413]",–,–,≥ 10 µM,0.001 to 0.1 µM
COc1cnc(Cl)cc1-c1cc(C)ncc1C(=O)Nc1nc2c(s1)CN(C(=O)c1ccn3nccc3n1)C2,0.001 to 0.1 µM,≥ 10 µM,–,–
"2′-chloro-N-(5-(2-(difluoromethyl)pyrimidine-4-carbonyl)-5,6-dihydro-4H-pyrrolo[3,4-d]thiazol-2-yl)-5′-methoxy-6-methyl-[4,4′-bipyridine]-3-carboxamide [Example 641]",–,–,≥ 10 µM,0.001 to 0.1 µM
"COc1cnc(Cl)cc1-c1cc(C)ncc1C(=O)Nc1nc2c(s1)CN(C(=O)c1cc(C)c(C(F)F)cn1)C2 [Example 903, 2′-chloro-N-(5-(5-(difluoromethyl)-4-methylpicolinoyl)-5,6-dihydro-4H-pyrrolo[3,4-d]thiazol-2-yl)-5′-methoxy-6-methyl-[4,4′-bipyridine]-3-carboxamide]",0.001 to 0.1 µM,≥ 10 µM,–,–
"COc1cnc(Cl)cc1-c1cc(C)ncc1C(=O)Nc1nc2c(s1)CN(C(=O)[C@H]1CC[C@H](C(F)F)CC1)C2 [Example 908, 2′-chloro-N-(5-((1r,4r)-4-(difluoromethyl)cyclohexane-1-carbonyl)-5,6-dihydro-4H-pyrrolo[3,4-d]thiazol-2-yl)-5′-methoxy-6-methyl-[4,4′-bipyridine]-3-carboxamide]",0.001 to 0.1 µM,≥ 10 µM,–,–
"2′-Chloro-5′-methoxy-6-methyl-N-(5-(3-methyl-5-(trifluoromethoxy)picolinoyl)-5,6-dihydro-4H-pyrrolo[3,4-d]thiazol-2-yl)-[4,4′-bipyridine]-3-carboxamide [Example 560]",–,–,≥ 10 µM,0.001 to 0.1 µM
COc1cnc(Cl)cc1-c1cc(C)ncc1C(=O)Nc1nc2c(s1)CN(C(=O)c1ccc(C#N)c(C)n1)C2,0.001 to 0.1 µM,≥ 10 µM,–,–
COc1cnc(Cl)cc1-c1cc(C)ncc1C(=O)Nc1nc2c(s1)CN(C(=O)c1ccc(C(F)F)c(C)n1)C2,0.001 to 0.1 µM,≥ 10 µM,–,–
COc1cnc(Cl)cc1-c1cc(C)ncc1C(=O)Nc1nc2c(s1)CN(C(=O)c1cc(Cl)c(C(F)F)cn1)C2,0.001 to 0.1 µM,5 to 10 µM,–,–
COc1cnc(Cl)cc1-c1cc(C)ncc1C(=O)Nc1nc2c(s1)CN(C(=O)c1nc(C)c(Cl)nc1C)C2 [Example 622],0.001 to 0.1 µM,≥ 10 µM,–,–
COc1cnc(Cl)cc1-c1cc(C)ncc1C(=O)Nc1nc2c(s1)CN(C(=O)c1nc(OC)c(Cl)cc1C)C2,0.001 to 0.1 µM,5 to 10 µM,–,–
COc1cnc(Cl)cc1-c1cc(C)ncc1C(=O)Nc1nc2c(s1)CN(C(=O)c1cnc(OC(F)F)cc1Cl)C2,0.001 to 0.1 µM,≥ 10 µM,–,–
"COc1cnc(Cl)cc1-c1cc(C)ncc1C(=O)Nc1nc2c(s1)CN(C(=O)c1cnc(OC(F)F)c(C)n1)C2 [Example 990, 2′-chloro-N-(5-(5-(difluoromethoxy)-6-methylpyrazine-2-carbonyl)-5,6-dihydro-4H-pyrrolo[3,4-d]thiazol-2-yl)-5′-methoxy-6-methyl-[4,4′-bipyridine]-3-carboxamide]",0.001 to 0.1 µM,≥ 10 µM,–,–

# More lines, main results first:
"IC50 (DLD1 BRCA2 (−/−) cells; Homo sapiens, DLD-1, 168 h)",Compound,"IC50 (DLD1 WT cells; Homo sapiens, DLD-1, 168 h)",IC50 (DLD1 WT cells),IC50 (DLD1 BRCA2 (−/−) cells)
0.001 to 0.1 µM,"COc1cnc(Cl)cc1-c1cc(C)ncc1C(=O)Nc1nc2c(s1)CN(C(=O)c1nc(C)cc(C(F)(F)F)c1C)C2 [Example 999, 2′-chloro-N-(5-(3,6-dimethyl-4-(trifluoromethyl)picolinoyl)-5,6-dihydro-4H-pyrrolo[3,4-d]thiazol-2-yl)-5′-methoxy-6-methyl-[4,4′-bipyridine]-3-carboxamide]",≥ 10 µM,–,–
0.1 to 0.25 µM,COc1cnc(Cl)cc1-c1cc(C)ncc1C(=O)Nc1nc2c(s1)CN(C(=O)c1ncc(OC(F)F)cc1Cl)C2,≥ 10 µM,–,–
0.25 to 0.5 µM,COc1cnc(Cl)cc1-c1cc(C)ncc1C(=O)Nc1nc2c(s1)CN(C(=O)c1ncc(C(F)F)nc1C)C2 (racemic),≥ 10 µM,–,–
0.001 to 0.1 µM,"COc1cnc(Cl)cc1-c1cc(C)ncc1C(=O)Nc1nc2c(s1)CN(C(=O)c1nccc(C(F)(F)F)c1F)C2 [Example 961, 2′-chloro-N-(S-(3-fluoro-4-(trifluoromethyl)picolinoyl)-5,6-dihydro-4H-pyrrolo[3,4-d]thiazol-2-yl)-5′-methoxy-6-methyl-[4,4′-bipyridine]-3-carboxamide]",≥ 10 µM,–,–
0.001 to 0.1 µM,COc1cnc(Cl)cc1-c1cc(C)ncc1C(=O)Nc1nc2c(s1)CN(C(=O)c1cnc(C(F)(F)F)c(C)n1)C2,0.5 to 2 µM,–,–
0.001 to 0.1 µM,"COc1cnc(Cl)cc1-c1cc(C)ncc1C(=O)Nc1nc2c(s1)CN(C(=O)c1nccc(Cl)c1C(F)F)C2 [Example 926, 2′-chloro-N-(5-(4-chloro-3-(difluoromethyl)picolinoyl)-5,6-dihydro-4H-pyrrolo[3,4-d]thiazol-2-yl)-5′-methoxy-6-methyl-[4,4′-bipyridine]-3-carboxamide]",≥ 10 µM,–,–
0.001 to 0.1 µM,"COc1cnc(Cl)cc1-c1cc(C)ncc1C(=O)Nc1nc2c(s1)CN(C(=O)c1nc(C)c(C(F)(F)F)cc1F)C2 [Example 1014, 2′-chloro-N-(5-(3-fluoro-6-methyl-5-(trifluoromethyl)picolinoyl)-5,6-dihydro-4H-pyrrolo[3,4-d]thiazol-2-yl)-5′-methoxy-6-methyl-[4,4′-bipyridine]-3-carboxamide]",≥ 10 µM,–,–
0.001 to 0.1 µM,"COc1cnc(Cl)cc1-c1cc(C)ncc1C(=O)Nc1nc2c(s1)CN(C(=O)c1nc(C)c(OC(F)(F)F)cc1C)C2 [Example 1028, 2′-chloro-N-(5-(3,6-dimethyl-5-(trifluoromethoxy)picolinoyl)-5,6-dihydro-4H-pyrrolo[3,4-d]thiazol-2-yl)-5′-methoxy-6-methyl-[4,4′-bipyridine]-3-carboxamide]",≥ 10 µM,–,–
0.001 to 0.1 µM,"COc1cnc(Cl)cc1-c1cc(C)ncc1C(=O)Nc1nc2c(s1)CN(C(=O)c1ccc(OC(F)(F)F)nc1OC)C2 [Example 1039, 2′-chloro-5′-methoxy-N-(5-(2-methoxy-6-(trifluoromethoxy)nicotinoyl)-5,6-dihydro-4H-pyrrolo[3,4-d]thiazol-2-yl)-6-methyl-[4,4′-bipyridine]-3-carboxamide]",≥ 10 µM,–,–
0.001 to 0.1 µM,"COc1cnc(Cl)cc1-c1cc(C)ncc1C(=O)Nc1nc2c(s1)CN(C(=O)c1nccc(C(F)(F)F)c1C)C2 [Example 951, 2′-chloro-5′-methoxy-6-methyl-N-(5-(3-methyl-4-(trifluoromethyl)picolinoyl)-5,6-dihydro-4H-pyrrolo[3,4-d]thiazol-2-yl)-[4,4′-bipyridine]-3-carboxamide]",≥ 10 µM,–,–
0.001 to 0.1 µM,"COc1cnc(Cl)cc1-c1cc(C)ncc1C(=O)Nc1nc2c(s1)CN(C(=O)c1cnc(OC(F)(F)F)cc1C)C2 [Example 1009, 2′-chloro-5′-methoxy-6-methyl-N-(5-(4-methyl-6-(trifluoromethoxy)nicotinoyl)-5,6-dihydro-4H-pyrrolo[3,4-d]thiazol-2-yl)-[4,4′-bipyridine]-3-carboxamide]",≥ 10 µM,–,–
0.5 to 2 µM,COc1cnc(Cl)cc1-c1cc(C)ncc1C(=O)Nc1nc2c(s1)CN(C(=O)c1ncc(Cl)nc1C)C2,≥ 10 µM,–,–
0.001 to 0.1 µM,"CCOc1nc(C(F)(F)F)ccc1C(=O)N1Cc2nc(NC(=O)c3cnc(C)cc3-c3cc(Cl)ncc3OC)sc2C1 [Example 969, 2′-chloro-N-(5-(2-ethoxy-6-(trifluoromethyl)nicotinoyl)-5,6-dihydro-4H-pyrrolo[3,4-d]thiazol-2-yl)-5′-methoxy-6-methyl-[4,4′-bipyridine]-3-carboxamide]",≥ 10 µM,–,–
0.001 to 0.1 µM,COc1cnc(Cl)cc1-c1cc(C)ncc1C(=O)Nc1nc2c(s1)CN(C(=O)c1cc(C)c(C(F)(F)F)c(C)n1)C2,≥ 10 µM,–,–

# — US20250230171A1 (MOMA Therapeutics, Inc., priority 2023, published 2025)
